Measurements reported in patent US20150105252A1, “SUBSTITUTED PYRAZOLES AS HERBICIDES” (E I DU PONT DE NEMOURS AND COMPANY, priority 2013, published 2015).

Tests used:
corn = assay: Test C preemergence; type: in vivo, Zea mays
Source text: (§1) Seeds of plant species selected from blackgrass (Alopecurus myosuroides), ryegrass, Italian (Italian ryegrass, Lolium multiflorum), wheat (winter wheat, Triticum aestivum), galium (catchweed bedstraw, Galium aparine), corn (Zea mays), crabgrass, large (large crabgrass, Digitaria sanguinalis), foxtail, giant (giant foxtail, Setaria faberii), johnsongrass (Sorghum halepense), lambsquarters (Chenopodium album), morningglory (Ipomoea coccinea), nutsedge, yellow (yellow nutsedge, Cyperus esculentus), pigweed (redroot pigweed, Amaranthus retroflexus), ragweed (common ragweed, Ambrosia elation), soybean (Glycine max), barnyardgrass (Echinochloa crus-galli), oilseed rape (Brassica napus), waterhemp (common waterhemp, Amaranthus rudis), oat, wild (wild oat, Avena fatua), kochia (Kochia scoparia), Surinam grass (Brachiaria decumbens), foxtail, green (green foxtail, Setaria viridis), goosegrass (Eleusine indica), bromegrass, downy (downy bromegrass, Bromus tectorum), nightshade (eastern black nightshade, Solanum ptycanthum), cocklebur (common cocklebur, Xanthium strumarium), cupgrass, woolly (woolly cupgrass, Eriochloa villosa), bermudagrass (Cynodon dactylon), sunflower, (common oilseed sunflower, Helianthus annuus), Russian thistle (Salsola kali), and velvetleaf (Abutilon theophrasti) were planted into a blend of loam soil and sand and treated preemergence with test chemicals formulated in a non-phytotoxic solvent mixture which included a surfactant.
(§2) At the same time, plants selected from these crop and weed species and also chickweed (common chickweed, Stellaria media), canarygrass (littleseed canarygrass, Phalaris minor), and deadnettle (henbit deadnettle, Lamium amplexicaule), were planted in pots containing Redi-Earth® planting medium (Scotts Company, 14111 Scottslawn Road, Marysville, Ohio 43041) comprising spaghnum peat moss, vermiculite, wetting agent and starter nutrients and treated with postemergence applications of test chemicals formulated in the same manner. Plants ranged in height from 2 to 18 cm (1- to 4-leaf stage) for postemergence treatments. Treated plants and controls were maintained in a greenhouse for 13 to 15 days, after which time all species were compared to controls and visually evaluated. Plant response ratings, summarized in Table C, are based on a scale of 0 to 100 where 0 is no effect and 100 is complete control. A dash (-) response means no test result.

waterhemp = assay: Test C preemergence; type: in vivo, Amaranthus rudis
Source text: as §1, §2

galium = assay: Test C preemergence; type: in vivo, Galium aparine
Source text: as §1, §2

wheat = assay: Test C preemergence; type: in vivo, Triticum aestivum
Source text: as §1, §2

soybean = assay: Test C preemergence; type: in vivo, Glycine max
Source text: as §1, §2

velvetleaf = assay: Test A postemergence; type: in vivo, Abutilon theophrasti
Procedure, shortened: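 Greenhouse test in loam soil/sand blend; compounds formulated in non-phytotoxic solvent with surfactant, applied as preemergence directed soil spray or postemergence to plants 2–10 cm tall at one- to two-leaf stage. Injury rated visually versus untreated controls after approximately 10 days on a 0 (no effect) to 100 (complete control) scale.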

oilseed rape = assay: Test C preemergence; type: in vivo, Brassica napus
Source text: as §1, §2

blackgrass = assay: Test C preemergence; type: in vivo, Alopecurus myosuroides
Source text: as §1, §2

ragweed = assay: Test C preemergence; type: in vivo, Ambrosia elation
Source text: as §1, §2

pigweed = assay: Test C preemergence; type: in vivo, Amaranthus retroflexus
Source text: as §1, §2

[1] = Preemergence, 4 g ai/ha, scale 0 to 100
[2] = Preemergence, 8 g ai/ha, scale 0 to 100
[3] = Preemergence, 16 g ai/ha, scale 0 to 100
[4] = preemergence, 31 g ai/ha, visual rating, scale 0 to 100 (0 no effect, 100 complete control), 13 to 15 days
[5] = Postemergence, 500 g ai/ha, 0 to 100 scale (0 no effect, 100 complete control)
[6] = postemergence, 125 g ai/ha, about 10 days, visual rating on 0 to 100 scale (0 no effect, 100 complete control)
[7] = preemergence, 62 g ai/ha, scale 0 to 100 (0 no effect, 100 complete control), 13 to 15 days
[8] = preemergence, 125 g ai/ha, 13 to 15 days, scale 0 to 100, 0 = no effect, 100 = complete control
[9] = preemergence, 250 g ai/ha, scale 0 to 100, 0 is no effect, 100 is complete control

## CCOc1cc(C(=O)NCC(F)(F)F)nn1Cc1cc(C(F)(F)F)nn1C [Compound 140]
corn; [1]
  Plant response rating, Corn: 0
corn; [2]
  Plant response rating, Corn: 0
corn; [3]
  Plant response rating, Corn: 0
corn; [4]
  Corn plant response rating: 10
waterhemp; [1]
  Plant response rating, Waterhemp: 70
waterhemp; [2]
  Plant response rating, Waterhemp: 70
waterhemp; [3]
  Plant response rating, Waterhemp: 85
waterhemp; [4]
  Waterhemp plant response rating: 95
galium; [1]
  Plant response rating, Galium: 50
galium; [2]
  Plant response rating, Galium: 60
galium; [3]
  Plant response rating, Galium: 98
galium; [4]
  Galium plant response rating: 100
wheat; [1]
  Plant response rating, Wheat: 0
wheat; [2]
  Plant response rating, Wheat: 0
wheat; [3]
  Plant response rating, Wheat: 0
wheat; [4]
  Wheat plant response rating: 35
soybean; [1]
  Plant response rating, Soybean: 10
soybean; [2]
  Plant response rating, Soybean: 5
soybean; [3]
  Plant response rating, Soybean: 5
soybean; [4]
  Soybean plant response rating: 25
velvetleaf; [5]
  Velvetleaf plant response rating: 80
velvetleaf; [6]
  Velvetleaf plant response rating: 50
Oilseed rape; [1]
  Plant response rating, Oilseed Rape: 5
Oilseed rape; [2]
  Plant response rating, Oilseed Rape: 80
Oilseed rape; [3]
  Plant response rating, Oilseed Rape: 95
Oilseed rape; [4]
  Oilseed Rape plant response rating: 95
blackgrass; [1]
  Plant response rating, Blackgrass: 0
blackgrass; [2]
  Plant response rating, Blackgrass: 0
blackgrass; [3]
  Plant response rating, Blackgrass: 5
blackgrass; [4]
  Blackgrass plant response rating: 50
ragweed; [1]
  Plant response rating, Ragweed: 5
ragweed; [2]
  Plant response rating, Ragweed: 5
ragweed; [3]
  Plant response rating, Ragweed: 25
ragweed; [4]
  Ragweed plant response rating: 70
pigweed; [1]
  Plant response rating, Pigweed: 80
pigweed; [2]
  Plant response rating, Pigweed: 100
pigweed; [3]
  Plant response rating, Pigweed: 100
pigweed; [4]
  Pigweed plant response rating: 100

## O=C(NCC(F)(F)F)c1cc(CCF)n(Cc2ccnc(C(F)(F)F)c2)n1 [Compound 175]
corn; [4]
  Corn plant response rating: 20
corn; [7]
  Corn plant response rating: 30
corn; [8]
  Plant response rating, Corn: 85
corn; [9]
  Corn plant response rating: 90
waterhemp; [4]
  Waterhemp plant response rating: 100
waterhemp; [7]
  Waterhemp plant response rating: 100
waterhemp; [8]
  Plant response rating, Waterhemp: 100
waterhemp; [9]
  Waterhemp plant response rating: 100
galium; [4]
  Galium plant response rating: 85
galium; [7]
  Galium plant response rating: 100
galium; [8]
  Plant response rating, Galium: 100
galium; [9]
  Galium plant response rating: 100
wheat; [4]
  Wheat plant response rating: 0
wheat; [7]
  Wheat plant response rating: 50
wheat; [8]
  Plant response rating, Wheat: 85
wheat; [9]
  Wheat plant response rating: 90
soybean; [4]
  Soybean plant response rating: 30
soybean; [7]
  Soybean plant response rating: 98
soybean; [8]
  Plant response rating, Soybean: 98
soybean; [9]
  Soybean plant response rating: 98
velvetleaf; [5]
  Velvetleaf plant response rating: 80
velvetleaf; [6]
  Velvetleaf plant response rating: 60
Oilseed rape; [4]
  Oilseed Rape plant response rating: 98
Oilseed rape; [7]
  Oilseed Rape plant response rating: 100
Oilseed rape; [8]
  Plant response rating, Oilseed Rape: 100
Oilseed rape; [9]
  Oilseed Rape plant response rating: 100
blackgrass; [4]
  Blackgrass plant response rating: 30
blackgrass; [7]
  Blackgrass plant response rating: 90
blackgrass; [8]
  Plant response rating, Blackgrass: 90
blackgrass; [9]
  Blackgrass plant response rating: 90
ragweed; [4]
  Ragweed plant response rating: 80
ragweed; [7]
  Ragweed plant response rating: 90
ragweed; [8]
  Plant response rating, Ragweed: 98
ragweed; [9]
  Ragweed plant response rating: 95
pigweed; [4]
  Pigweed plant response rating: 100
pigweed; [7]
  Pigweed plant response rating: 100
pigweed; [8]
  Plant response rating, Pigweed: 100
pigweed; [9]
  Pigweed plant response rating: 100

## O=C(NC1CC1)c1cc(CCF)n(Cc2ccnc(C(F)(F)F)c2)n1 [Compound 176]
corn; [4]
  Corn plant response rating: 5
corn; [7]
  Corn plant response rating: 5
corn; [8]
  Plant response rating, Corn: 90
corn; [9]
  Corn plant response rating: 90
waterhemp; [4]
  Waterhemp plant response rating: 100
waterhemp; [7]
  Waterhemp plant response rating: 100
waterhemp; [8]
  Plant response rating, Waterhemp: 100
waterhemp; [9]
  Waterhemp plant response rating: 100
galium; [4]
  Galium plant response rating: 85
galium; [7]
  Galium plant response rating: 85
galium; [8]
  Plant response rating, Galium: 98
galium; [9]
  Galium plant response rating: 100
wheat; [4]
  Wheat plant response rating: 0
wheat; [7]
  Wheat plant response rating: 0
wheat; [8]
  Plant response rating, Wheat: 5
wheat; [9]
  Wheat plant response rating: 85
soybean; [4]
  Soybean plant response rating: 30
soybean; [7]
  Soybean plant response rating: 75
soybean; [8]
  Plant response rating, Soybean: 98
soybean; [9]
  Soybean plant response rating: 98
velvetleaf; [5]
  Velvetleaf plant response rating: 90
velvetleaf; [6]
  Velvetleaf plant response rating: 40
Oilseed rape; [4]
  Oilseed Rape plant response rating: 90
Oilseed rape; [7]
  Oilseed Rape plant response rating: 90
Oilseed rape; [8]
  Plant response rating, Oilseed Rape: 95
Oilseed rape; [9]
  Oilseed Rape plant response rating: 100
blackgrass; [4]
  Blackgrass plant response rating: 5
blackgrass; [7]
  Blackgrass plant response rating: 5
blackgrass; [8]
  Plant response rating, Blackgrass: 90
blackgrass; [9]
  Blackgrass plant response rating: 90
ragweed; [4]
  Ragweed plant response rating: 85
ragweed; [7]
  Ragweed plant response rating: 100
ragweed; [8]
  Plant response rating, Ragweed: 100
ragweed; [9]
  Ragweed plant response rating: 95
pigweed; [4]
  Pigweed plant response rating: 100
pigweed; [7]
  Pigweed plant response rating: 100
pigweed; [8]
  Plant response rating, Pigweed: 100
pigweed; [9]
  Pigweed plant response rating: 100

## CCNC(=O)c1cc(CCF)n(Cc2ccnc(C(F)(F)F)c2)n1 [Compound 178]
corn; [3]
  Plant response rating, Corn: 5
corn; [4]
  Corn plant response rating: 5
corn; [7]
  Corn plant response rating: 5
corn; [8]
  Plant response rating, Corn: 25
waterhemp; [3]
  Plant response rating, Waterhemp: 65
waterhemp; [4]
  Waterhemp plant response rating: 90
waterhemp; [7]
  Waterhemp plant response rating: 100
waterhemp; [8]
  Plant response rating, Waterhemp: 100
galium; [3]
  Plant response rating, Galium: 70
galium; [4]
  Galium plant response rating: 90
galium; [7]
  Galium plant response rating: 90
galium; [8]
  Plant response rating, Galium: 95
wheat; [3]
  Plant response rating, Wheat: 0
wheat; [4]
  Wheat plant response rating: 0
wheat; [7]
  Wheat plant response rating: 0
wheat; [8]
  Plant response rating, Wheat: 0
soybean; [3]
  Plant response rating, Soybean: 5
soybean; [4]
  Soybean plant response rating: 5
soybean; [7]
  Soybean plant response rating: 40
soybean; [8]
  Plant response rating, Soybean: 75
velvetleaf; [5]
  Velvetleaf plant response rating: 60
velvetleaf; [6]
  Velvetleaf plant response rating: 40
Oilseed rape; [3]
  Plant response rating, Oilseed Rape: 50
Oilseed rape; [4]
  Oilseed Rape plant response rating: 70
Oilseed rape; [7]
  Oilseed Rape plant response rating: 80
Oilseed rape; [8]
  Plant response rating, Oilseed Rape: 98
blackgrass; [3]
  Plant response rating, Blackgrass: 0
blackgrass; [4]
  Blackgrass plant response rating: 5
blackgrass; [7]
  Blackgrass plant response rating: 30
blackgrass; [8]
  Plant response rating, Blackgrass: 85
ragweed; [3]
  Plant response rating, Ragweed: 60
ragweed; [4]
  Ragweed plant response rating: 70
ragweed; [7]
  Ragweed plant response rating: 85
ragweed; [8]
  Plant response rating, Ragweed: 90
pigweed; [3]
  Plant response rating, Pigweed: 45
pigweed; [4]
  Pigweed plant response rating: 100
pigweed; [7]
  Pigweed plant response rating: 100
pigweed; [8]
  Plant response rating, Pigweed: 100
